Where only a bound is given, the exact number is not on record here.

The text below walks through data of paper PMC11173485, “Connecting GSK-3β Inhibitory Activity with IKK-β or ROCK-1 Inhibition to Target Tau Aggregation and Neuroinflammation in Alzheimer’s Disease—Discovery, In Vitro and In Cellulo Activity of Thiazole-Based Inhibitors” (Molecules, 2024).

One assay addresses T1, IKK-β (Homo sapiens, UniProt O14920).
T1 construct: purchased Promega
T1 sequence (O14920 1-756): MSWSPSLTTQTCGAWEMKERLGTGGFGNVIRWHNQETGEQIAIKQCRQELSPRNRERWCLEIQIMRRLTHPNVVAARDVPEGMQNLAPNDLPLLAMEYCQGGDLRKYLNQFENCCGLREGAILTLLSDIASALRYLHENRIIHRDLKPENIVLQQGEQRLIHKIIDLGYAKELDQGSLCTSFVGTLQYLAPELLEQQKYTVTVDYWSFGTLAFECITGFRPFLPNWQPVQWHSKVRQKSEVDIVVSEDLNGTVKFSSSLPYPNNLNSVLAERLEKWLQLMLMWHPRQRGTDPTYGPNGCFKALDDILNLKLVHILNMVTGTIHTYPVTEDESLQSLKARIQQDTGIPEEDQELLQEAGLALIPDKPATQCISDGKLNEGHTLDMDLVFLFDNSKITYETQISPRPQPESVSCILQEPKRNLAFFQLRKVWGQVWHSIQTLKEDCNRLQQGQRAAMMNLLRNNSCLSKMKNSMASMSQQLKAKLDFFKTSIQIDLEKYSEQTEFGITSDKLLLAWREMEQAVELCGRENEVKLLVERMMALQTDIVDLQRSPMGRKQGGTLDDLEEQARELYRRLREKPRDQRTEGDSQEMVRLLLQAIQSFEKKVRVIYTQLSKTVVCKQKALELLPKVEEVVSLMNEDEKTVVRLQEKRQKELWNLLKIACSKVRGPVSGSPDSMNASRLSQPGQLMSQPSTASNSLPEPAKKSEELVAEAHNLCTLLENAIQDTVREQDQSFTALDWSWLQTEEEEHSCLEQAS
Kind of assay: ADP-Glo kinase assay, IKK-β inhibition. It counts as biochemical. As to conditions: 10 µM; mean ± SD; read-out: % inh. at 10 µM IKK-β. The text has this: We evaluated the inhibitory activity of the final compounds against GSK-3β, IKK-β, and ROCK-1 kinases using the commercially available ADP-Glo™ kinase assay. The method was based on the measurement of luminescence that correlates with kinase activity. […] The latter are inhibitors of the kinases of interest and were integral to the design of our studies.
Promega’s Kinase Enzyme Systems (Promega; Madison, WI, USA) were used to determine the activities of the tested compounds against the human recombinant kinases GSK-3β, IKK- β, and ROCK-1. The assays were performed according to the provided manufacturer’s instruction, based on the optimized conditions of the enzymatic reactions, using the low-volume, white polystyrene, 384-well plates. The ADP-Glo™ Assay (Promega; Madison, WI, USA) was used for bioluminescent detection of the kinase activity. Stock solutions of the tested compounds in DMSO (1mM) were diluted with the Kinase Assay Buffer before use (40 mM Tris, pH 7.5, enriched with 50 µM dithiothreitol; DTT), giving the final desired concentrations. The kinase enzymes, substrates, and ATP solutions were also diluted with the assay buffer prior to use. The GSK-3β, IKK-β, and ROCK-1 substrates were derived from human muscle glycogen synthase 1, human IkBA, and human 40S ribosomal protein S6, respectively. The assay procedure was as follows: At first, the appropriate kinase enzyme (GSK-3β: 10 ng per well; IKK-β: 45 ng per well; ROCK-1: 24 ng per well) was incubated with the tested sample (10 µM in well) for 5 min. The DMSO solution (1% in well) was used in the blank samples instead of the tested inhibitors. After the incubation period, ATP (25 µM per well in the case of GSK-3β and IKK-β kinases; 5 µM per well in the case of ROCK-1 kinase) and an appropriate enzyme substrate (0.2 µg/µL in well) were added to start the enzymatic reaction. The reaction mixture was kept at room temperature for 1 h; then, the ADP-Glo™ reagent was added, to terminate the kinase reaction and deplete any remaining ATP. After 40 min, a second reagent (Kinase Detection Reagent) was applied to convert the obtained ADP to ATP and to generate light from the newly synthesized ATP using a luciferase/luciferin reaction. The mixture was incubated for another 30 min at room temperature before the luminescence was measured. The calculations of the percent of kinases’ inhibition by tested compounds were based on the equation 100 − (S/B) × 100; S and B are the enzyme activities with and without the tested sample, respectively. […] Each compound was evaluated in two independent experiments, with every data point collected in duplicate.
On the technique in general: ADP-Glo first removes unused ATP, then detects ADP through luciferase.
With `NC(=O)Nc1cc(-c2ccnc(NC(=O)C3CCC3)c2)sc1C(N)=O` [Compound 50, 5-(2-(Cyclobutanecarboxamido)pyridin-4-yl)-3-ureidothiophene-2-carboxamide], the inhibition at 10 µM was less than 10%.

For the compound `CC(C)C(=O)Nc1cc(-c2cc3c(s2)C(=O)NC(C)(C)N3)ccn1` [Compound 39, N-(4-(2,2-Dimethyl-4-oxo-1,2,3,4-tetrahydrothieno [3,2-d]pyrimidin-6-yl)pyridin-2-yl)isobutyramide], the inhibition at 10 µM is 33%.

Consider `CC(C)C(=O)Nc1cc(-c2cc(NC(N)=O)c(C(N)=O)s2)ccn1` [Compound 48, 5-(2-Isobutyramidopyridin-4-yl)-3-ureidothiophene-2-carboxamide], for which the inhibition at 10 µM was less than 10%.

As for `NC(=O)Nc1cc(-c2ccnc(NC(=O)C3CC3)c2)sc1C(N)=O` [Compound 49, 5-(2-(Cyclopropanecarboxamido)pyridin-4-yl)-3-ureidothiophene-2-carboxamide], the inhibition at 10 µM was 16%.

As to `COc1nc(-c2ccnc(NC(=O)C3CC3)c2)sc1C(N)=O` [II, reference compound], the inhibition at 10 µM was 22%.

With `CC1(C)NC(=O)c2sc(-c3ccnc(NC(=O)C4CCC4)c3)cc2N1` [Compound 41, N-(4-(2,2-Dimethyl-4-oxo-1,2,3,4-tetrahydrothieno [3,2-d]pyrimidin-6-yl)pyridin-2-yl)-cyclobutanecarboxamide], the inhibition at 10 µM is 32%.

For the compound `O=C1NC2(CCOC2)Nc2cc(-c3ccnc(NC(=O)C4CC4)c3)sc21` (stereo not shown) [Compound 62, N-(4-(4′-Oxo-3′,4,4′,5-tetrahydro-1′H,2H-spiro[furan-3,2′-thieno [3,2-d]pyrimidin]-6′-yl)pyridin-2-yl)cyclopropanecarboxamide], the inhibition at 10 µM was determined as 39%.

The assay is the same for the next values; noted with them: mean ± SEM; ATP 25 µM.
`O=C1NC2(CCCC2)Nc2cc(-c3ccnc(NC(=O)C4CC4)c3)sc21` [Compound 60, N-(4-(4’-Oxo-3’,4’-dihydro-1’H-spiro[cyclopentane-1,2’-thieno [3,2-d]pyrimidin]-6’-yl)pyridin-2-yl)cyclopropanecarboxamide] yielded an IC50 of 7.35 µM.

In turn, `NC(=O)Nc1cc(-c2cccc(NC(=O)C3CC3)c2)sc1C(N)=O` [Compound 58, 5-(3-(Cyclopropanecarboxamido)phenyl)-3-ureidothiophene-2-carboxamide] yielded an IC50 of 0.422 ± 0.012 µM.

`CC1(C)NC(=O)c2sc(-c3ccnc(NC(=O)C4CC4)c3)cc2N1` [Compound 40, N-(4-(2,2-Dimethyl-4-oxo-1,2,3,4-tetrahydrothieno [3,2-d]pyrimidin-6-yl)pyridin-2-yl)-cyclopropanecarboxamide]: the IC50 worked out at 4.38 ± 0.544 µM.

Broadly, the IC50 is the concentration that inhibits the measured activity by half. A low value points to greater potency in that assay.
